Data: US10077241B2 (Janssen Pharmaceutica NV, priority 2014, dated 2018)
Counter-ions that a name gives are not always drawn.

How the values were obtained:
[1] = target: T1, TGR5 (NCI-H716 cell line) (Homo sapiens, UniProt Q8TDU6); assay: NCI-H716 cAMP Agonist EC50 Determination
T1 sequence (Q8TDU6 1-330): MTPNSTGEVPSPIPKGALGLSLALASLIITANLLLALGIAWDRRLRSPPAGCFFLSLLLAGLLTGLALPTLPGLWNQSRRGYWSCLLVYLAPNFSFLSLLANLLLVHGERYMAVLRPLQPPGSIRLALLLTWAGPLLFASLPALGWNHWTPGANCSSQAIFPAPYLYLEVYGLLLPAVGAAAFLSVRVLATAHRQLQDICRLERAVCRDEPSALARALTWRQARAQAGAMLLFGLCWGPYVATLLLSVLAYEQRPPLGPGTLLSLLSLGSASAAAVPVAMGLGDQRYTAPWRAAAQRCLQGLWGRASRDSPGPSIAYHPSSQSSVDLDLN
Experimental: Cells were cultured in suspension using RPM containing: 10% HI FBS, and 1× Penn/Strep and were cryostored (1E7 cells/vial in 5% DMSO).
A Normalized signal (NS) is generated by the Envision for each well ((Read 1/Read 2)×10,000).
The data from the Envision were imported to an Excel worksheet. nM cAMP is calculated for each well from the cAMP standard curves located on each plate by first calculating the slope and deriving the intercept (b).
[formula] [formula] [formula] EC50 values were determined from a 4-point fit (Hill equation) of a single 11-point compound dosing.

[2] = target: T2, TGR5 (STC1 cell line) (Mus musculus, UniProt Q80SS6); assay: STC1 cAMP Agonist EC50 Determination
T2 sequence (Q80SS6 1-329): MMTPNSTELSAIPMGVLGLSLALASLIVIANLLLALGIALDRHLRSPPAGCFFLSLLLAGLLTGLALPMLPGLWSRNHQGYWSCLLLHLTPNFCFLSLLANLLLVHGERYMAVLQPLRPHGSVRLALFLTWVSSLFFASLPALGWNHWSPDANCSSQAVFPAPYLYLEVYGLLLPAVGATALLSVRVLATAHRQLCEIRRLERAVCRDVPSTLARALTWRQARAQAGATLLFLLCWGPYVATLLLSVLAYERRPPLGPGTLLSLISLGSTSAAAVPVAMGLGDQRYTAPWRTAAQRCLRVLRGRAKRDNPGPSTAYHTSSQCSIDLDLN

EC50 [1] | EC50 [2] | Compound
> 50 µM | 9.86 µM | COc1cc(C2CCCc3nc(SCc4c(F)cccc4Cl)n(-c4ccc(F)c(F)c4F)c32)ccc1Cl (stereo not drawn) [Example 9, 7-(4-chloro-3-methoxyphenyl)-2-((2-chloro-6-fluorobenzyl)thio)-1-(2,3,4-trifluorophenyl)-4,5,6,7-tetrahydro-1H-benzo[d]imidazole]
> 50 µM | 0.79 µM | COc1cc(C2CCCc3nc(SCc4c(F)cccc4Cl)n(-c4cc(F)c(F)c(F)c4)c32)ccc1Cl (stereo not drawn) [Example 10, 7-(4-chloro-3-methoxyphenyl)-2-((2-chloro-6-fluorobenzyl)thio)-1-(3,4,5-trifluorophenyl)-4,5,6,7-tetrahydro-1H-benzo[d]imidazole]
> 50 µM | 3.71 µM | COc1cc(C2CCCc3nc(SCc4c(F)cccc4Cl)n(-c4cc(F)c(F)cc4F)c32)ccc1Cl (stereo not drawn) [Example 11, 7-(4-chloro-3-methoxyphenyl)-2-((2-chloro-6-fluorobenzyl)thio)-1-(2,4,5-trifluorophenyl)-4,5,6,7-tetrahydro-1H-benzo[d]imidazole]
> 50 µM | 19.7 µM | COc1cc(C2CCCc3nc(SCc4c(F)cc(C(=O)O)cc4F)n(-c4ccc(F)cc4)c32)ccc1Cl (stereo not drawn) [Example 12, 4-((7-(4-chloro-3-methoxyphenyl)-1-(4-fluorophenyl)-4,5,6,7-tetrahydro-1H-benzo[d]imidazol-2-ylthio)methyl)-3,5-difluorobenzoic acid trifluoroacetic acid]
> 50 µM | 8.04 µM | COc1cc(C2CCCc3nc(SCc4c(F)cc(C(=O)NCC[N+](C)(C)C)cc4F)n(-c4ccc(F)cc4)c32)ccc1Cl (stereo not drawn) [Example 13, 2-(4-((7-(4-chloro-3-methoxyphenyl)-1-(4-fluorophenyl)-4,5,6,7-tetrahydro-1H-benzo[d]imidazol-2-ylthio)methyl)-3,5-difluorobenzamido)-N,N,N-trimethylethanaminium 2,2,2-trifluoroacetate]
> 50 µM | 0.53 µM | COc1cc(C2CCCc3nc(SCc4c(F)cccc4C#N)n(-c4ccc(F)cc4)c32)ccc1Cl (stereo not drawn) [Example 14, 2-([[7-(4-chloro-3-methoxyphenyl)-1-(4-fluorophenyl)-4,5,6,7-tetrahydro-1H-1,3-benzodiazol-2-yl]sulfanyl]methyl)-3-fluorobenzonitrile]
> 50 µM | 13.3 µM | COc1cc(C2CCCc3nc(SCc4c(F)cccc4C(F)(F)F)n(-c4ccc(F)cc4)c32)ccc1Cl (stereo not drawn) [Example 15, 7-(4-chloro-3-methoxyphenyl)-2-([[2-fluoro-6-(trifluoromethyl)phenyl]methyl]sulfanyl)-1-(4-fluorophenyl)-4,5,6,7-tetrahydro-1H-1,3-benzodiazole]
> 50 µM | 0.51 µM | COc1cc(C2CCCc3nc(SCc4c(F)ccc(F)c4Cl)n(-c4ccc(F)cc4)c32)ccc1Cl (stereo not drawn) [Example 20, 2-[[(2-chloro-3,6-difluorophenyl)methyl]sulfanyl]-7-(4-chloro-3-methoxyphenyl)-1-(4-fluorophenyl)-4,5,6,7-tetrahydro-1H-1,3-benzodiazole]
48.4 µM | 0.69 µM | COc1cc(C2CCCc3nc(SCc4c(F)cc(S(N)(=O)=O)cc4F)n(-c4ccc(F)cc4)c32)ccc1Cl (stereo not drawn) [Example 21a, 4-((7-(4-chloro-3-methoxyphenyl)-1-(4-fluorophenyl)-4,5,6,7-tetrahydro-1H-benzo[d]imidazol-2-ylthio)methyl)-3,5-difluorobenzenesulfonamide]
> 50 µM | 8.12 µM | COc1cc(C2CCCc3nc(SCc4c(F)cc(S(=O)(=O)NS(C)(=O)=O)cc4F)n(-c4ccc(F)cc4)c32)ccc1Cl (stereo not drawn) [Example 21b, 4-((7-(4-chloro-3-methoxyphenyl)-1-(4-fluorophenyl)-4,5,6,7-tetrahydro-1H-benzo[d]imidazol-2-ylthio)methyl)-3,5-difluoro-N-(methylsulfonyl)benzenesulfonamide]
> 50 µM | 32.6 µM | COc1cc(C2CCCc3nc(SCc4c(F)cc(S(=O)(=O)NCCC[N+](C)(C)C)cc4F)n(-c4ccc(F)cc4)c32)ccc1Cl (stereo not drawn) [Example 22, 3-(4-((7-(4-chloro-3-methoxyphenyl)-1-(4-fluorophenyl)-4,5,6,7-tetrahydro-1H-benzo[d]imidazol-2-ylthio)methyl)-3,5-difluorophenylsulfonamido)-N,N,N-trimethylpropan-1-aminium 2,2,2-trifluoroacetate]
> 50 µM | 0.66 µM | COc1cc(C2CCCc3nc(SCc4c(F)cc(OCCOCCOCCOCCO)cc4F)n(-c4ccc(F)cc4)c32)ccc1Cl (stereo not drawn) [Example 23, 1-[4-([[7-(4-chloro-3-methoxyphenyl)-1-(4-fluorophenyl)-4,5,6,7-tetrahydro-1H-1,3-benzodiazol-2-yl]sulfanyl]methyl)-3,5-difluorophenyl]-1,4,7,10-tetraoxadodecan-12-ol]
> 50 µM | 3.92 µM | COc1cc(C2CCCc3nc(SCc4c(F)cc(OCCN(C)C)cc4F)n(-c4ccc(F)cc4)c32)ccc1Cl (stereo not drawn) [Example 24, 2-(4-((7-(4-chloro-3-methoxyphenyl)-1-(4-fluorophenyl)-4,5,6,7-tetrahydro-1H-benzo[d]imidazol-2-ylthio)methyl)-3,5-difluorophenoxy)-N,N-dimethylethanamine Trifluoromethylacetic acid salt]
> 50 µM | 0.96 µM | COc1cc(C2CCCc3nc(SCc4c(F)cc(OCc5nnn[nH]5)cc4F)n(-c4ccc(F)cc4)c32)ccc1Cl (stereo not drawn) [Example 30, 7-(4-chloro-3-methoxyphenyl)-2-([[2,6-difluoro-4-(1H-1,2,3,4-tetrazol-5-ylmethoxy)phenyl]methyl]sulfanyl)-1-(4-fluorophenyl)-4,5,6,7-tetrahydro-1H-1,3-benzodiazole]
4.44 µM | 4.1 µM | COc1cc(C2CCCc3nc(SCc4c(F)ccc(OCCN(C)C)c4F)n(-c4ccc(F)cc4)c32)ccc1Cl (stereo not drawn) [Example 31, [2-[3-([[17-(4-chloro-3-methoxyphenyl)-1-(4-fluorophenyl)-4,5,6,7-tetrahydro-1H-1,3-benzodiazol-2-yl]sulfanyl]methyl)-2,4-difluorophenoxy]ethyl]dimethylamine]
16.9 µM | 1.38 µM | COc1cc(C2CCCc3nc(SCc4c(F)ccc(OCCOCCOCCN(C)C)c4F)n(-c4ccc(F)cc4)c32)ccc1Cl (stereo not drawn) [Example 32, 7-(4-chloro-3-methoxyphenyl)-2-([[3-(2-[2-[2-(dimethylamino)ethoxy]ethoxy]ethoxy)-2,6-difluorophenyl]methyl]sulfanyl)-1-(4-fluorophenyl)-4,5,6,7-tetrahydro-1H-1,3-benzodiazole hydrochloride]
> 50 µM | 4.9 µM | COc1cc(C2CCCc3nc(SCc4c(F)cc(OCCOCCOCCN(C)C)cc4F)n(-c4ccc(F)cc4)c32)ccc1Cl (stereo not drawn) [Example 33, 2-(2-(2-(4-((7-(4-chloro-3-methoxyphenyl)-1-(4-fluorophenyl)-4,5,6,7-tetrahydro-1H-benzo[d]imidazol-2-ylthio)methyl)-3,5-difluorophenoxy)ethoxy)ethoxy)-N,N-dimethylethanamine hydrochloride]
> 50 µM | 3.9 µM | COc1cc(C2CCCc3nc(SCc4c(F)cc(OCCOCCN(C)C)cc4F)n(-c4ccc(F)cc4)c32)ccc1Cl (stereo not drawn) [Example 34, (2-[2-[4-([[7-(4-chloro-3-methoxyphenyl)-1-(4-fluorophenyl)-4,5,6,7-tetrahydro-1H-1,3-benzodiazol-2-yl]sulfanyl]methyl)-3,5-difluorophenoxy]ethoxy]ethyl)dimethylamine hydrochloride]
9.3 µM | 3.15 µM | COc1cc(C2CCCc3nc(SCc4c(F)ccc(OCCOCCN(C)C)c4F)n(-c4ccc(F)cc4)c32)ccc1Cl (stereo not drawn) [Example 35, (2-[2-[3-([[7-(4-chloro-3-methoxyphenyl)-1-(4-fluorophenyl)-4,5,6,7-tetrahydro-1H-1,3-benzodiazol-2-yl]sulfanyl]methyl)-2,4-difluorophenoxy]ethoxy]ethyl)dimethylamine hydrochloride]
> 50 µM | 1.34 µM | COc1cc(C2CCCc3nc(SCc4c(F)cc(C#N)cc4F)n(-c4ccc(F)cc4)c32)ccc1Cl (stereo not drawn) [Example 36, 4-([[7-(4-chloro-3-methoxyphenyl)-1-(4-fluorophenyl)-4,5,6,7-tetrahydro-1H-1,3-benzodiazol-2-yl]sulfanyl]methyl)-3,5-difluorobenzonitrile]
> 50 µM | 14.9 µM | COc1cc(C2CCCc3nc(SCc4c(F)cc(/C=C5\SC(=O)NC5=O)cc4F)n(-c4ccc(F)cc4)c32)ccc1Cl (stereo not drawn) [Example 37, (5Z)-5-[[4-([[7-(4-chloro-3-methoxyphenyl)-1-(4-fluorophenyl)-4,5,6,7-tetrahydro-1H-1,3-benzodiazol-2-yl]sulfanyl]methyl)-3,5-difluorophenyl]methylidene]-1,3-thiazolidine-2,4-dione]
